Measurements from patent US9788541B2, “Antibacterial surfactant/microgel formulations, methods of making and methods of using the same” (The University of Toledo, priority 2012, dated 2017).

Tested on: Pseudomonas aeruginosa PAO1
Assay: Antibacterial activity test, viable cell counts by heterotrophic plate count
Format: cell-based
Settings: microgel-free surfactant solutions (10 mmol/kg SDS, 14.4 mmol/kg TX-100, 3.0 mmol/kg 40:60 SDS:TX100), 0-30 min; FIG. 5 Groups 6-8
Protocol: The effect of anionic and nonionic surfactants on the microgel antibacterial properties was probed using Pseudomonas aeruginosa (wild-type P. aeruginosa PAOI strain) as model Gram-negative bacteria. The bacteria were cultured in one-tenth strength LB broth (2.5 g/L, Difco Laboratory, Detroit, Mich.) at 37° C. until the late-exponential phase. Bacterial cells were then harvested by centrifugation at 2,000 g for 15 min (using an Eppendorf 5804R centrifuge; Hamburg, Germany), washed and resuspended in phosphate buffer (0.54 g Na2HPQ4 and 0.88 g KH2PO4 per liter, pH=6.98) as bacterial suspensions (0D600=0.25±0.02).
Each antimicrobial formulation sample was then tested in triplicate at room temperature (22±2° C.). The bacterial suspension was mixed with the surfactant/microgel formulations in a 1:1000 ratio (e.g., 15 μl:15 ml). After mixing, samples were taken at 5, 15, and 30 min to quantify the effect of surfactant/microgel formulations on the number of viable cells. The viable cells were enumerated at each time point using the heterotrophic plate count method with R2A agar plates (Difco Laboratories, Detroit, Mich.).
The antibacterial activity of the surfactant/microgel formulations was tested using Pseudomonas aeruginosa PAO1 as a model Gram-negative bacteria. […]

Row | Compound | effect on bacterial viability
1 | CCCCCCCCCCCCOS(=O)(=O)[O-].[Na+] [SDS, sodium dodecyl sulfate] | no short-term effect on bacterial viability
2 | t-octylphenoxypolyethoxyethanol [TX100] | no short-term effect on bacterial viability
